The record followed here is patent publication US20190124959A1, “SYSTEMS, METHODS, AND COMPOSITIONS RELATED TO USING NON-LIVE-BACTERIA PREPARATIONS TO PROMOTE FOOD SAFETY AND PRESERVATION” (priority 2016, published 2019).

SMILES strings stand for the structures. Like-named read-outs stand apart in the source and are kept apart here.

This experiment has as its system E. coli (strains ATCC BAA 1427, 1428, 1429, 1430 and 1431). In kind it is cell-based. Set-up: key: + = Growth; −1 = Inhibition; − = No Growth. The method, then: A microtiter experiment was conducted to evaluate the pathogen killing effect of the following pathogen killing agents: (1) about 100 μL of non-live-bacteria concentrate having dead bacteria alone (obtained from Example 8), (2) a blend of about 50 μL of non-live-bacteria concentrate having dead bacteria (obtained from Example 8), and about 50 μL of approximately 0.1 M lactic acid, or (3) about 100 μL of approximately 0.1 M lactic acid alone when added into Swanson® chicken broth and a source of pathogens.
About 100 μL chicken broth was added into microtiter wells 1 through 12. The pathogen killing agents were added at about 100 μL into wells 1 and 2. About 100 μL from the mixture of pathogen killing agent and chicken broth were then added to well 3 and then repeated thereafter to create the following dilutions, by volume, until well 11: 1:1, 1:2, 1:4, 1:8, 1:16, 1:32, 1:64, 1:128, 1:256, 1:512, and 1:1024. Next, into all microtiter wells, about 50 μL of a solution containing E. coli (strains ATCC BAA 1427, 1428, 1429, 1430 and 1431) were added such that an approximately 1×10^5 cfu/gram concentration of E. coli in each well was obtained. Well 12 served as the positive control by having no pathogen killing agent added. Microtiter plates containing the wells described above were then placed into an incubator at about 35° C. for either about 24 or about 48 hours. After the appropriate incubation time, microtiter plates were removed from the incubator and the color indicator (about 50 μL iodonitrotetrazolium salt reagent) was added into each well and the microtiter plate placed back into the incubator at about 35° C. for about an additional 4 hours to produce the desired color change reaction. Upon removal from the incubator, the color change and pH in each well were recorded.

Turning to `CC(O)C(=O)O` (stereo not shown) [Lactic Acid, lactic acid], the “Microtiter well result, E. coli growth” value (dilution 1:1, After Incubating at 35° C. for 24 hours) is reported as “−”; the “Microtiter well result, E. coli growth” value (dilution 1:1, After Incubating at 35° C. for 48 hours) was “−”; the “Microtiter well result, E. coli growth” value (dilution 1:2, After Incubating at 35° C. for 24 hours) is on record as “−”; the “Microtiter well result, E. coli growth” value (dilution 1:2, After Incubating at 35° C. for 48 hours) was “−”; the “Microtiter well result, E. coli growth” value (dilution 1:4, After Incubating at 35° C. for 24 hours) is listed as “−”; the “Microtiter well result, E. coli growth” value (dilution 1:4, After Incubating at 35° C. for 48 hours) is recorded as “+”. Moreover, the “Microtiter well result, E. coli growth” value (dilution 1:8, After Incubating at 35° C. for 24 hours) was “−”; the “Microtiter well result, E. coli growth” value (dilution 1:8, After Incubating at 35° C. for 48 hours) is given as “+”; the “Microtiter well result, E. coli growth” value (dilution 1:16, After Incubating at 35° C. for 24 hours) was “−”; the “Microtiter well result, E. coli growth” value (dilution 1:16, After Incubating at 35° C. for 48 hours) is “+”; the “Microtiter well result, E. coli growth” value (dilution 1:32, After Incubating at 35° C. for 24 hours) is “−”; the “Microtiter well result, E. coli growth” value (dilution 1:32, After Incubating at 35° C. for 48 hours) is given as “+”. Besides, the “Microtiter well result, E. coli growth” value by setting is: (dilution 1:64, After Incubating at 35° C. for 24 hours) “−”; (dilution 1:64, After Incubating at 35° C. for 48 hours) “+”; (dilution 1:128, After Incubating at 35° C. for 24 hours) “+”; (dilution 1:128, After Incubating at 35° C. for 48 hours) −1; (dilution 1:256, After Incubating at 35° C. for 24 hours) “+”; (dilution 1:256, After Incubating at 35° C. for 48 hours) “+”. In addition, the “Microtiter well result, E. coli growth” value (dilution 1:512, After Incubating at 35° C. for 24 hours) is recorded as “+”; the “Microtiter well result, E. coli growth” value (dilution 1:512, After Incubating at 35° C. for 48 hours) is on record as “+”; the “Microtiter well result, E. coli growth” value (dilution 1:1024, After Incubating at 35° C. for 24 hours) is “+”; the “Microtiter well result, E. coli growth” value (dilution 1:1024, After Incubating at 35° C. for 48 hours) is recorded as “+”.
